Key:
Test in all cases: relative viability (nuclei count vs DMSO), 5 days (fraction); higher = more cells survive
[1] = compound: Cn1cc(-c2cnc3ccc4ccc(CS(=O)(=O)NCc5ccccn5)cc4c(=O)c3c2)cn1 [MK-8033] + Nc1ncn([C@H]2C[C@H](O)[C@@H](CO)O2)c(=O)n1 [Decitabine] (partner 2 µM)
How it was run: (§1)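 Five library-drug doses in √10 steps were combined with a fixed anchor-drug dose, or a single drug was given alone, by pin tool to lung cancer cell lines in 1536-well plates the day after seeding. Nuclei were stained and counted after 5 days. Relative viability is the nuclei count in treated wells over that in vehicle wells, taken as the median of duplicate plates.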

[2] = compound: Cn1cc(-c2cnc3ccc4ccc(CS(=O)(=O)NCc5ccccn5)cc4c(=O)c3c2)cn1 [MK-8033] + NC(=O)Nc1cc(-c2cccc(F)c2)sc1C(=O)N[C@H]1CCCNC1 [AZD7762] (partner 0.2 µM)
How it was run: as §1

[3] = compound: CCc1c2c(nc3ccc(OC(=O)N4CCC(N5CCCCC5)CC4)cc13)-c1cc3c(c(=O)n1C2)COC(=O)[C@]3(O)CC [Irinotecan] + CC1(C)CCC(c2ccc(Cl)cc2)=C(CN2CCN(c3ccc(C(=O)NS(=O)(=O)c4ccc(N[C@H](CCN5CCOCC5)CSc5ccccc5)c(S(=O)(=O)C(F)(F)F)c4)cc3)CC2)C1 [Navitoclax] (partner 0.5 µM)
How it was run: as §1

[4] = compound: Cn1cc(-c2cnc3ccc4ccc(CS(=O)(=O)NCc5ccccn5)cc4c(=O)c3c2)cn1 [MK-8033] + O=C(CCCCCCC(=O)Nc1ccccc1)NO [Vorinostat] (partner 1 µM)
How it was run: as §1

Cell Line | relative viability ([1]; first compound 0.02 µM) | relative viability ([1]; first compound 0.06325 µM) | relative viability ([1]; first compound 0.2 µM) | relative viability ([1]; first compound 0.6325 µM) | relative viability ([1]; first compound 2 µM) | relative viability ([2]; first compound 0.02 µM) | relative viability ([2]; first compound 0.06325 µM) | relative viability ([2]; first compound 0.2 µM) | relative viability ([2]; first compound 0.6325 µM) | relative viability ([2]; first compound 2 µM) | relative viability ([3]; first compound 0.6325 µM) | relative viability ([3]; first compound 2 µM) | relative viability ([3]; first compound 6.325 µM) | relative viability ([3]; first compound 20 µM) | relative viability ([4]; first compound 0.02 µM) | relative viability ([4]; first compound 0.06325 µM) | relative viability ([4]; first compound 0.2 µM) | relative viability ([4]; first compound 0.6325 µM) | relative viability ([4]; first compound 2 µM)
NCI-H727 | 0.846 | 0.783 | 0.921 | 0.927 | 0.829 | 0.697 | 0.614 | 0.519 | 0.758 | 0.574 | 0.225 | 0.358 | 0.319 | 0.308 | 1.2 | 0.981 | 1.11 | 1.16 | 1.13
EKVX | 0.34 | 0.285 | 0.388 | 0.343 | 0.399 | 0.695 | 0.615 | 0.693 | 0.647 | 0.63 | 0.924 | 0.74 | 0.344 | 0.157 | 0.484 | 0.72 | 0.734 | 0.746 | 0.66
NCI-H1666 | 0.792 | 0.746 | 0.728 | 0.766 | 0.736 | 0.839 | 0.771 | 0.814 | 0.873 | 0.996 | 0.695 | 0.643 | 0.401 | 0.326 | 1.04 | 1.01 | 1.01 | 1.09 | 1.04
NCI-H1915 | 0.255 | 0.239 | 0.255 | 0.266 | 0.264 | 0.671 | 0.627 | 0.684 | 0.681 | 0.711 | 0.318 | 0.18 | 0.151 | 0.115 | 0.467 | 0.438 | 0.518 | 0.494 | 0.49
HCC-366 | 0.327 | 0.361 | 0.331 | 0.36 | 0.366 | 0.367 | 0.231 | 0.228 | 0.291 | 0.256 | 0.79 | 0.158 | 0.0415 | 0.0387 | 0.392 | 0.313 | 0.253 | 0.329 | 0.324
EPLC-272H | 0.338 | 0.373 | 0.325 | 0.367 | 0.37 | 0.207 | 0.144 | 0.201 | 0.167 | 0.19 | 0.658 | 0.17 | 0.144 | 0.209 | 0.434 | 0.332 | 0.38 | 0.422 | 0.551

From the supplement of paper PMC10307832
